Earlier results, collected in patent publication US20230065004A1, “METHOD FOR IMPROVING COLOUR RETENTION OF DYED KERATINOUS MATERIAL, ESPECIALLY HUMAN HAIR” (Henkel AG & Co. KGaA, priority 2019, published 2023).

settings: 25° C.

Row | solubility in water | SMILES
1 | more than 20 wt. % | CCN(Cc1cccc(S(=O)(=O)[O-])c1)c1ccc(C(=C2C=CC(=[N+](CC)Cc3cccc(S(=O)(=O)[O-])c3)C=C2)c2ccccc2S(=O)(=O)[O-])cc1.[Na+].[Na+] [Acid Blue 9]
2 | about 2.5 g/L | Nc1cc(S(=O)(=O)[O-])cc2cc(S(=O)(=O)[O-])c(N=Nc3ccccc3)c(O)c12.[Na+].[Na+] [Acid Red 33, dinatrium salt of 5-amino-4-hydroxy-3-(phenylazo)-naphthalene-2,7-disulphonate]
3 | highly soluble | O=C([O-])C1=NN(c2ccc(S(=O)(=O)[O-])cc2)C(=O)C1N=Nc1ccc(S(=O)(=O)[O-])cc1.[Na+].[Na+].[Na+] (stereo not shown) [Acid Yellow 23, trisodium salt of 4,5-dihydro-5-oxo-1-(4-sulfophenyl)-4-((4-sulfophenyl)azo)-1H-pyrazole-3-carboxylic acid]

Row | SMILES | solubility in water
4 | O=S(=O)([O-])c1ccc(N=Nc2c(O)ccc3ccccc23)cc1.[Na+] [Acid Orange 7, sodium salt of 4-[(2-hydroxy-1-naphthyl)azo]benzene sulphonate] | more than 7 g/L
